Among the test systems are ACHN renal; COLO 205 colon; HCT-116 colon; HOP-92 NSCLC; HS 578T breast; MCF7 breast; MOLT-4 leukemia; OVCAR-5 ovarian; PC-3 prostate; T-47D breast.
Test in all cases: DTP human tumour cell line panel, 48 h

By GI50 is commonly meant the concentration at which growth is held to half of that of the control. For orientation: TGI means the concentration at which net growth stops. Read a low TGI as more potent growth arrest.

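Method: 48-hour compound exposure of cells in 96-well plates, five concentrations, linear interpolation of endpoints. Abbreviation: GI50, concentration required for 50% inhibition of growth. TGI denotes the concentration required for complete inhibition of growth.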

For `COc1cc(C2C3=C(COC3=O)Nc3cc4c(cc32)OCO4)cc2c1OCO2` (stereo not given), the GI50 with ACHN renal was 0.357 µM; in the assay on COLO 205 colon, 0.0735 µM; in the assay with HCT-116 colon, 0.0905 µM; in the assay on HOP-92 NSCLC, 3.24 µM; in the assay with HS 578T breast, 0.0414 µM; in the assay with MCF7 breast, 0.0393 µM. Moreover, the GI50 with MOLT-4 leukemia is 0.123 µM; in the assay on OVCAR-5 ovarian, 1.09 µM; in the assay on PC-3 prostate it was 0.0629 µM; in the assay on T-47D breast, over 100 µM. Further, the TGI was over 100 µM with ACHN renal; 0.172 µM in the assay on COLO 205 colon; 3.49 µM with HCT-116 colon; over 93.3 µM in the assay with HOP-92 NSCLC; over 100 µM with HS 578T breast; over 100 µM in the assay on MCF7 breast. The TGI in the assay on MOLT-4 leukemia, in the assay on OVCAR-5 ovarian, in the assay on PC-3 prostate and in the assay on T-47D breast was over 100 µM each time.
Regarding `Oc1ccccc1C=Nc1ccccc1N=Cc1ccccc1O.[Cu+2]`, the GI50 was 5.64 µM in the assay with ACHN renal; 3.45 µM in the assay with COLO 205 colon; 4.45 µM with HCT-116 colon; 1.03 µM in the assay with HOP-92 NSCLC; 15.4 µM with HS 578T breast; 2.34 µM with MCF7 breast. For the same molecule, the GI50 in the assay with MOLT-4 leukemia was 3.84 µM; in the assay with OVCAR-5 ovarian, 14.8 µM; with PC-3 prostate, 3.49 µM; in the assay with T-47D breast it was 1.68 µM. For the same molecule, the TGI with ACHN renal was 22.2 µM; in the assay with COLO 205 colon, 14.5 µM; in the assay on HCT-116 colon, 16.9 µM; in the assay with HOP-92 NSCLC it was 8.9 µM; in the assay with HS 578T breast it was 92 µM; in the assay on MCF7 breast it was 14.1 µM. The TGI with MOLT-4 leukemia is over 100 µM; in the assay on OVCAR-5 ovarian it was 36 µM; in the assay on PC-3 prostate it was 16.2 µM; with T-47D breast, 5.4 µM.
In the case of `CC(OC(=O)N(N(CCCl)S(C)(=O)=O)S(C)(=O)=O)c1ccc([N+](=O)[O-])cc1` (stereo not given), the GI50 is over 100 µM in the assay with ACHN renal; 77.6 µM in the assay on COLO 205 colon; over 66 µM in the assay on HCT-116 colon; over 100 µM with HOP-92 NSCLC; over 54.7 µM in the assay on HS 578T breast; 58 µM with MCF7 breast. Also, the GI50 is 43.1 µM with MOLT-4 leukemia, over 100 µM in the assay on OVCAR-5 ovarian, over 66.7 µM with PC-3 prostate and over 69.2 µM in the assay on T-47D breast. In addition, the TGI was over 100 µM with ACHN renal; over 100 µM with COLO 205 colon; over 100 µM with HCT-116 colon; over 100 µM with HOP-92 NSCLC; over 92 µM in the assay with HS 578T breast; over 100 µM with MCF7 breast. The TGI in the assay on MOLT-4 leukemia, with OVCAR-5 ovarian, with PC-3 prostate and in the assay with T-47D breast was over 100 µM each time.
As for `CN(C)c1ccc(C(=C2C=CC(=[N+](C)C)C=C2)c2ccccc2Cl)cc1`, the GI50 with ACHN renal was 0.4 µM; in the assay on COLO 205 colon it was 0.17 µM; in the assay on HCT-116 colon it was 0.155 µM; with HOP-92 NSCLC, 0.302 µM; in the assay on HS 578T breast, 0.207 µM; in the assay with MCF7 breast it was 0.237 µM. Also, the GI50 with MOLT-4 leukemia was 0.593 µM; in the assay with OVCAR-5 ovarian it was 0.408 µM; in the assay with PC-3 prostate, 0.242 µM; in the assay with T-47D breast, 0.188 µM. For the same molecule, the TGI came out at 1.61 µM in the assay with ACHN renal; 0.312 µM in the assay with COLO 205 colon; 0.605 µM in the assay on HCT-116 colon; 1.35 µM in the assay on HOP-92 NSCLC; 2.78 µM with HS 578T breast; 0.899 µM in the assay with MCF7 breast. In addition, the TGI stood at 12.9 µM in the assay on MOLT-4 leukemia, 1.48 µM in the assay with OVCAR-5 ovarian, 0.995 µM in the assay with PC-3 prostate and 0.901 µM with T-47D breast.
